Earlier results as cited in patent publication US8168440B2, “Polymeric sulfated surfactants for capillary electrophoresis (CE) and CE-mass spectrometry (CE-MS)” (Georgia State University, priority 2006, dated 2012).

Assays:
[1] = in vivo

SMILES | pKa | Part of the dosage taken excreted in the urine [1] | Serum half-life [1] [h]
CC(Oc1ccccc1Cl)C(=O)O (racemic) [(±)-2-PPA, 2-(2-chlorophenoxy)propionic acid] | 3.11±0.1 |  | 
CN[C@@H](C)[C@@H](O)c1ccccc1 (racemic) [(±)-pseudoephedrine, pseudoephedrine] |  | about one-half | 5 to 8
